Assay results reported in patent publication US9045482B2, “Pyrido[4,3-B]indoles and methods of use” (Medivation Technologies, Inc., priority 2009, dated 2015).

Key:
[1] = biological target: T1, human recombinant serotonin (5-Hydroxytryptamine) 5-HT6 receptor (Homo sapiens, UniProt P50406); assay: Serotonin 5-HT6 radioligand binding ([3H]LSD)
T1 construct: expressed in transfected cells; host or cells: human HeLa cells
Method: Compounds of the invention were incubated with 1.5 nM [3H]Lysergic acid diethylamide (LSD) for 120 min at 37° C. […] Receptor proteins were filtered and washed, the filters were then counted to determine [3H]LSD specifically bound. Compounds were screened at 1 μM or lower, using 1% DMSO as vehicle. Biochemical assay results are presented as the percent inhibition of specific binding in Table 4.

[2] = biological target: T2, human recombinant adrenergic α2B receptor (Homo sapiens, UniProt P18089); assay: Adrenergic α2B radioligand binding ([3H]Rauwolscine)
T2 construct: expressed in transfected cells; host or cells: Chinese hamster ovary (CHO-K1) cells
T2 sequence (P18089 1-450): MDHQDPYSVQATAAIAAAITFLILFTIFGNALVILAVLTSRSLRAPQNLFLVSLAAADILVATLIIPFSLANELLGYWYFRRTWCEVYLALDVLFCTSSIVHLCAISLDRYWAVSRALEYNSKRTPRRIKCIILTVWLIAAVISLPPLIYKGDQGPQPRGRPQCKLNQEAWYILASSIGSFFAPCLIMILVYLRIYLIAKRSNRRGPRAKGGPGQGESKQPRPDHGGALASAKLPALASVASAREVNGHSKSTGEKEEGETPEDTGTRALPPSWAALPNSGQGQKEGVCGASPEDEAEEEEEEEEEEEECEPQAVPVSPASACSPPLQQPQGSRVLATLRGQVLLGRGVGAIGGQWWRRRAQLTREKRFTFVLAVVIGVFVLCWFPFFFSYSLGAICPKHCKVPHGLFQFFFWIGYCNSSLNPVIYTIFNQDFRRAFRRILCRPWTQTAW
Method: To evaluate in radioligand binding assays the activity of compounds of the invention, human recombinant adrenergic α2B receptor expressed in Chinese hamster ovary (CHO-K1) cells [Uhlen, S. et al., Eur. J. Pharmacol. (1998), 343(1):93] in a modified Tris-HCl buffer (50 mM Tris-HCl, pH 7.4, 12.5 mM MgCl2, 1 mM EDTA, 0.2% BSA) was used. Compounds of the invention were incubated with 2.5 nM [^3H]Rauwolscine for 60 min at 25° C. Non-specific binding was estimated in the presence of 10 μM Prozosin. Receptor proteins were filtered and washed, the filters were then counted to determine [^3H]Rauwolscine specifically bound. Compounds were screened at 1 μM or lower, using 1% DMSO as vehicle. Compounds of the invention were tested in this biochemical assay. Biochemical assay results for representative compounds were presented as the percent inhibition of specific binding in Table 3.

[3] = biological target: T3, human recombinant serotonin (5-Hydroxytryptamine) 5-HT2A receptor (Homo sapiens, UniProt P28223); assay: Serotonin 5-HT2A radioligand binding ([3H]Ketanserin)
T3 construct: expressed in transfected cells; host or cells: Chinese hamster ovary (CHO-K1) cells
T3 sequence (P28223 whole entry): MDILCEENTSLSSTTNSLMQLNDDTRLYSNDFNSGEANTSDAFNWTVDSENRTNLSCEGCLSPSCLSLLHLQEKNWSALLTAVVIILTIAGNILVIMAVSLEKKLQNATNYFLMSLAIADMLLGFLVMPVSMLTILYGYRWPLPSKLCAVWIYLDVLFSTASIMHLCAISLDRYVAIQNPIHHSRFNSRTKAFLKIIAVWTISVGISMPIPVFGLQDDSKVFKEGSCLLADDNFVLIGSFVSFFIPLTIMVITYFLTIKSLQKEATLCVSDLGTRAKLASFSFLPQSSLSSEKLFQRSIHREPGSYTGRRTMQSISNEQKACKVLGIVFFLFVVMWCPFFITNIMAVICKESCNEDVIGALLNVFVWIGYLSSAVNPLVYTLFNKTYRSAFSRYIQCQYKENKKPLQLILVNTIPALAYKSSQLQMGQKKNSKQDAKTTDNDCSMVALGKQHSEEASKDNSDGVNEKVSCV
Method: (1997), 68:1998] in a 50 mM Tris-HCl buffer, pH 7.4, was used. Compounds of the invention were incubated with 0.5 nM [^3H]Ketanserin for 60 min at 25° C. Non-specific binding was estimated in the presence of 1 μM Mianserin. Receptor proteins were filtered and washed, the filters were then counted to determine [^3H]Ketanserin specifically bound. Compounds were screened at 1 μM or lower, using 1% DMSO as vehicle. Biochemical assay results are presented as the percent inhibition of specific binding in Table 4.

[4] = biological target: T4, rat adrenergic α1A receptor (Rattus norvegicus, UniProt P43140); assay: Adrenergic α1A radioligand binding ([3H]Prozosin); set-up: species or system Wistar Rat; details: 0.1 μM ligand conc.
T4 construct: rat adrenergic α1A receptor obtained from Wistar Rat submaxillary glands; from tissue; host or cells: Wistar Rat submaxillary glands
T4 sequence (P43140 1-466): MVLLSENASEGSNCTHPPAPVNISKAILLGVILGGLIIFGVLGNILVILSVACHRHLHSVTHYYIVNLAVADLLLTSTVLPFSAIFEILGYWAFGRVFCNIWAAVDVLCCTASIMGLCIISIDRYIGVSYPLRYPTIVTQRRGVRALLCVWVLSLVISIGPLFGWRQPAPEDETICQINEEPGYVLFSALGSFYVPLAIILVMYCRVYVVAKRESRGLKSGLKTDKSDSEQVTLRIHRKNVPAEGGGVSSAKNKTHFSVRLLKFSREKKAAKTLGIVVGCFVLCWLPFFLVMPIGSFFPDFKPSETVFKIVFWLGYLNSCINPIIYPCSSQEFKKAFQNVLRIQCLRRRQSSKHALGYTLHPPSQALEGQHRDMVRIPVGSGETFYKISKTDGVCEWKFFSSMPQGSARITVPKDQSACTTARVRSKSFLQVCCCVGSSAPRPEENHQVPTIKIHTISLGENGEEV
Method: To evaluate in radioligand binding assays the activity of compounds of the invention, rat adrenergic α1A receptor obtained from Wistar Rat submaxillary glands [Michel, A. D. et al., Br. J. Pharmacol. (1989), 98:883] in a modified Tris-HCl buffer (50 mM Tris-HCl buffer, pH 7.4, 0.5 mM EDTA) was used. Compounds of the invention were incubated with 0.25 nM [^3H]Prozosin for 60 min at 25° C. Non-specific binding was estimated in the presence of 10 μM phentolamine. Receptor proteins were filtered and washed, the filters were then counted to determine [^3H]Prozosin specifically bound. Compounds of the invention were screened at 1 μM or lower, using 1% DMSO as vehicle. Compounds of the invention were tested in this biochemical assay. Biochemical assay results for representative compounds were presented as the percent inhibition of specific binding in Table 3.

T1 sequence (P50406 whole entry): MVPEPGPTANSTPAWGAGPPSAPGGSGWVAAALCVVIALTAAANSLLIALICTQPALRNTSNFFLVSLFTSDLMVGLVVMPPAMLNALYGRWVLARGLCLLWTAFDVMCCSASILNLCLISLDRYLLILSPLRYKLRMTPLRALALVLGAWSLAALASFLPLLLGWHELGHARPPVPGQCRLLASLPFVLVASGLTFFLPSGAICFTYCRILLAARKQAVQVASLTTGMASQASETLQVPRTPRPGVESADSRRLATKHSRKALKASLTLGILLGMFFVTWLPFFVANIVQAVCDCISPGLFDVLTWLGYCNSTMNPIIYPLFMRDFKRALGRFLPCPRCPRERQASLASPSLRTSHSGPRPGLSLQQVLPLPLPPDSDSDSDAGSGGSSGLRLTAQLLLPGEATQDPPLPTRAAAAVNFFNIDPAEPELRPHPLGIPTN

Compound | Percent Inhibition of ligand binding Serotonin 5-HT6 ([1]; 1 μM ligand concentration) | Percent Inhibition of ligand binding Adrenergic α2B ([2]; 1 μM ligand conc.) | Percent Inhibition of ligand binding Serotonin 5-HT2A ([3]; 1 μM ligand concentration) | Percent Inhibition of ligand binding Serotonin 5-HT6 ([1]; 0.1 μM ligand concentration) | Percent Inhibition of ligand binding Adrenergic α1A [4] | Percent Inhibition of ligand binding Serotonin 5-HT2A ([3]; 0.1 μM ligand concentration) | Percent Inhibition of ligand binding Adrenergic α2B ([2]; 0.1 μM ligand conc.)
Fc1ccc(CCn2c3c(c4cc(Cl)ccc42)C2CCCN2CC3)cc1 (centres unmarked) [Compound 1, 7-(4-fluorophenethyl)-10-chloro-2,3,5,6,7,11c-hexahydro-1H-indolizino[7,8-b]indole] | 19% | 55% | 11% |  |  |  | 
Fc1ccc(CCn2c3c(c4cc(Cl)ccc42)CN2CCCC2C3)cc1 (centres unmarked) [Compound 2, 10-(4-fluorophenethyl)-7-chloro-2,3,5,10,11,11a-hexahydro-1H-indolizino[7,6-b]indole] | 19% | 51% | 41% |  |  |  | 
C/C(=C\n1c2c(c3cc(C)ccc31)C1CCCN1CC2)c1ccc(C)nc1 (centres unmarked) [Compound 32, (E)-10-methyl-7-(2-(6-methylpyridin-3-yl)prop-1-enyl)-2,3,5,6,7,11c-hexahydro-1H-indolizino[7,8-b]indole] |  |  |  | 25% | 55% | 50% | 
Cc1cnc2c(c1)c1c(n2CCc2ccc(C)nc2)CCN2CCCC12 (centres unmarked) [Compound 33, 10-methyl-7-(2-(6-methylpyridin-3-yl)ethyl)-2,3,5,6,7,1c-hexahydro-1H-pyrido[3′,2′:4,5]pyrrolo[2,3-g]indolizine] |  |  |  | 20% | 26% | 29% | 
Cc1ccc(CCn2c3c(c4cccnc42)C2CCCN2CC3)cn1 (centres unmarked) [Compound 34, 7-(2-(6-methylpyridin-3-yl)ethyl)-2,3,5,6,7,1c-hexahydro-1H-pyrido[3′,2′:4,5]pyrrolo[2,3-g]indolizine] |  |  |  | 5% | −9% | 15% | 
Cc1ccc(CCn2c3c(c4cccnc42)CN2CCCC2C3)cn1 (centres unmarked) [Compound 35, 11-(2-(6-methylpyridin-3-yl)ethyl)-7,8,9,9a,10,11-hexahydro-5H-pyrido[3′,2′:4,5]pyrrolo[3,2-f]indolizine] |  |  |  | −3% | −2% | 31% | 
Cc1cnc2c(c1)c1c(n2CCc2ccc(C)nc2)CC2CCCN2C1 (centres unmarked) [Compound 36, 3-methyl-11-(2-(6-methylpyridin-3-yl)ethyl)-7,8,9,9a,10,11-hexahydro-5H-pyrido[3′,2′:4,5]pyrrolo[3,2-f]indolizine] |  |  |  | 34% | 26% | 35% | 
O=C(Cn1c2c(c3cccnc31)CN1CCCC1C2)N1CCCCC1 (centres unmarked) [Compound 37, 1-(piperidin-1-yl)-2-(8,9,9a,10-tetrahydro-5H-pyrido[3′,2′:4,5]pyrrolo[3,2-f]indolizin-11(7H)-yl)ethanone] |  |  |  | −9% | −6% | 33% | 40%
O=C(Cn1c2c(c3cccnc31)C1CCCN1CC2)N1CCCCC1 (centres unmarked) [Compound 38, 1-(piperidin-1-yl)-2-(2,3,5,6-tetrahydro-1H-pyrido[3′,2′:4,5]pyrrolo[2,3-g]indolizin-7(11cH)-yl)ethanone] |  |  |  | −8% | −6% | 19% | 30%
